Biological target: recombinant HCV NS5B (genotype 1b) NS5BCΔ21 (Hepatitis C virus genotype 1b, UniProt P26663)
Assay: in vitro NS5B RNA dependent RNA polymerase
Assay type: biochemical
Settings: Supplementary data, Table S1

Compound | NS5B inhibitory activity (in words)
O=C(O)CN1C(=O)CSC1=S [2-(4-oxo-2-thioxothiazolidin-3-yl)acetic acid] | either inactive or poorly active
CCN1C(=O)C(=Cc2ccc(Cl)cc2Cl)SC1=S [5-(2,4-dichlorobenzylidene)-3-ethyl-2-thioxothiazolidin-4-one] | either inactive or poorly active
O=C(O)CN1C(=O)C(=Cc2ccccc2)SC1=S [2-(5-benzylidene-4-oxo-2-thioxothiazolidin-3-yl)acetic acid] | either inactive or poorly active

Source: article PMC2956004 (Bioorganic & medicinal chemistry, 2010)
